From patent US20210040054A1, “Substituted Hydrophobic Benzene Sulfonamide Thiazole Compounds for Use in Treating Cancer” (INSERM (Institut National de la Sante et de la Recherche …, priority 2015, published 2021)
Entries after “also recorded” stand apart in the source; their conditions may differ.

How the values were obtained:
Format in all cases: cell-based
BxPC3 (sensitive) = assay: Cell viability on sensitive pancreatic cancer cells (FIG. 2c); conditions: compared with Gemcitabine
Procedure: (§1) Cells were seeded in 6-well plates (60000 cells/well), depleted and incubated with compounds for the times indicated. Then cells were detached in the presence of 200 μl of HyQTase (Thermo) and 2 ml of RPMI 1640 Glutamax (Gibco) was added to the cell solution. 10 μl of this solution was stained for 1 minute with 10 μl of 0.4% trypan blue before counting with a Malassez chamber.
(§2) FIG. 1: the Effect of Compounds Ia-7, IIIa-3, IIIa-1, IIIa-2, 11a-2, 11a-9, Ia-4, Ha-11, IIa-12, IIa-6, Compared to Ia-1, on Cell Viability on A375 Melanoma Cells. Cell viability was assessed by measuring the number of cells alive in samples of different cells. The measure of cell viability as performed by cell counting using the trypan blue exclusion method. Results were expressed as the percentage of cells alive relatively to the number of living cells in the presence of DMSO, which corresponds to the negative control associated to the 100% value. […] The very active compounds IIa-2, IIIa-1 and IIIa-3 substituted in para position respectively with an octyne, hexyl and octyl chain, were selected to investigate their potential to promote cell death on resistant melanoma cell lines as well as other cancer cell lines. FIG. 2a. Effect of Compounds 11a-2, IIIa-1 and IIIa-3 on Cell Viability on Melanoma Cells. PLX4032 was Used as a Positive Control. […] FIG. 2b. Effect of Compounds IIa-2, IIIa-1 and IIIa-3 on Cell Viability on CML Cells. Imatinib was Used as a Positive Control. The activity of compounds IIa-2, IIIa-1 and IIIa-3 against CML cells was also evaluated. […] FIG. 2c. Effect of Compounds IIa-2, IIIa-1 and IIIa-3 on Cell Viability on Pancreatic Cancer Cells. Gemcitabine was Used as a Positive Control. The compounds IIa-2, IIIa-1 and IIIa-3 were next evaluated against pancreatic cells, BxPC3 (sensitive) and MiaPACA cell lines (resistant to the nucleoside analog Gemcitabine).

sensitive K562 CML cells = assay: Cell viability on sensitive CML cells (FIG. 2b); conditions: compared with Imatinib
Procedure: as §1, §2

[1] = test system: sensitive melanoma cell lines; assay: Cell viability on sensitive melanoma cell lines (FIG. 2a); conditions: 10 μM
Procedure: (§3) Different melanoma cell lines were purchased from American Tissue Culture Collection (Molsheim, France). Cells were grown in RPMI 1640 (A375, WM9 and patient melanoma cells) or in DMEM medium (Mel501) supplemented with 10% FCS and penicillin/streptomycin (100 U/ml/[…]) at 37° C. and 5% CO2.
as §1
as §2, with “Effect of Compounds IIa-2, IIIa-1 and IIIa-3 on Cell Viability on Pancreatic Cancer Cells. Gemcitabine was Used as a Positive Control.” left out

resistant K562 cells = assay: Cell viability on resistant CML cells (FIG. 2b); conditions: compared with Imatinib
Procedure: as §1, §2

[2] = test system: resistant A375 R5C3 an A375 RIV cell lines; assay: Cell viability on resistant melanoma cell lines (FIG. 2a); conditions: resistant A375 R5C3 and A375 RIV cell lines; 10 μM
Procedure: as §3, §1, §2

A375 melanoma cells = assay: Cell viability, trypan blue exclusion cell counting (FIG. 1); conditions: compared to reference compound Ia-1
Procedure: as §3, §1
as §2, with “Effect of Compounds IIa-2, IIIa-1 and IIIa-3 on Cell Viability on Pancreatic Cancer Cells. Gemcitabine was Used as a Positive Control.” left out

[3] = test system: MiaPACA cell lines (resistant to the nucleoside analog Gemcitabine); assay: Cell viability on Gemcitabine-resistant pancreatic cancer cells (FIG. 2c)
Procedure: as §1, §2

A375 melanoma cell line = assay: Western blot, mechanism of death: PARP cleavage (apoptosis) and LCII/LCIII conversion (autophagy) (FIG. 4); conditions: IIa-2 at 10 μM
Procedure: Proteins were extracted in Fisher buffer containing TRIS-HCl pH 7.5 50 mM, NaCl 15 mM, Triton X-100 1% and proteases and phosphatases inhibitors. Briefly, cell lysates (30 μg) were separated by SDS-PAGE, transferred onto a PVDF membrane (Millipore, Molsheim, France) and then exposed to the appropriate antibodies. Proteins were visualized with the ECL system from Amersham (Arlington, Heights, Ill., USA). The western blots shown are representative of at least 3 independent experiments.

human normal melanocytes = assay: Viability of normal melanocytes (FIG. 3); conditions: different concentration of IIa-2
Procedure: Normal human melanocytes (NHM) prepared from foreskins of newborns were grown under 5% CO2 at 37° C. in MCDB 153 (Sigma) supplemented with 2% FCS, bovine pituitary extract (10 μg/ml), PMA (8 nM), bFGF (1 ng/ml), insulin (5 μg/ml), hydrocortisone (0.5 μg/ml), forskolin (10 μM), gentamicin (20 μg/ml), penicillin/streptomycin/amphotericin B (100 U/ml) (Invitrogen).
as §1
(§4) Primary cell cultures of human normal melanocytes were prepared from human foreskin. In order to determine the effect of compound IIa-2 on cell viability of melanocytes and fibroblasts, different concentration of IIa-2 were added to the cell samples. The measure of cell viability was performed in the same way as for FIG. 1. Results are expressed as the percentage of living cells relatively to the number of living cells in the presence of DMSO, as for FIG. 1.

Normal human fibroblasts = assay: Viability of normal fibroblasts (FIG. 3); conditions: different concentration of IIa-2
Procedure: Normal human fibroblasts prepared from foreskins of newborns were grown under 5% CO2 at 37° C. in DMEM medium supplemented with 10% FCS and penicillin/streptomycin (100 U/ml/[…]).
as §1, §4

Compound	cell viability (BxPC3 (sensitive))	cell viability (sensitive K562 CML cells)	cell viability [1]	cell viability (resistant K562 cells)	cell viability [2]	cell viability (percentage of cells alive relatively to DMSO) (A375 melanoma cells)	cell viability [3]	mechanism of death: PARP cleavage (apoptosis) and LCII/LCIII conversion (autophagy) (A375 melanoma cell line)	cell viability of normal cells (percentage of living cells relatively to DMSO) (human normal melanocytes)	cell viability of normal cells (percentage of living cells relatively to DMSO) (Normal human fibroblasts)
CCCCCCCCc1ccc(S(=O)(=O)Nc2cccc(-c3csc(NC(C)=O)n3)c2)cc1 [IIIa-3, N-(4-(3-((4-octylphenyl)sulfonamido)phenyl)thiazol-2-yl)acetamide]	very high activity	viability decrease in the same range than the standard BCR-ABL inhibitor Imatinib	strong activity	much more active	strong activity	very active	still very active	–	–	–
CCCCCCc1ccc(S(=O)(=O)Nc2cccc(-c3csc(NC(C)=O)n3)c2)cc1 [IIIa-1, N-(4-(3-((4-hexylphenyl)sulfonamido)phenyl)thiazol-2-yl)acetamide]	very high activity	viability decrease in the same range than the standard BCR-ABL inhibitor Imatinib	strong activity	much more active	strong activity	very active	still very active	–	–	–
CCCS(=O)(=O)Nc1ccc(F)c(C(=O)c2c[nH]c3ncc(-c4ccc(Cl)cc4)cc23)c1F [PLX4032, reference compound]	–	–	–	–	looses most activity	–	–	only apoptosis is induced	–	–
CCCCCCC#Cc1ccc(S(=O)(=O)Nc2cccc(-c3csc(NC(C)=O)n3)c2)cc1 [IIa-2, N-(4-(3-((4-(oct-1-yn-1-yl)phenyl)sulfonamido)phenyl)thiazol-2-yl)acetamide]	very high activity; also recorded: total cell death	viability decrease in the same range than the standard BCR-ABL inhibitor Imatinib	strong activity	much more active; also recorded: almost total mortality	strong activity	very active	–	induced both apoptosis and autophagy cellular deaths	no effect	no effect
Nc1ccn([C@@H]2O[C@H](CO)[C@@H](O)C2(F)F)c(=O)n1 [Gemcitabine, reference compound]	–	–	–	–	–	–	inactive	–	–	–
